For the first experiment, the system named is REH. As to the kind of experiment: Cell viability (CellTiter Glo), compressed perturbation pools with informed pool design, SUM-based deconvolution, REH. The arrangement: scale not given here.
Settings: not given
The method in brief:
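Cells were exposed to cancer drugs at 1 nM–10 μM, and viability was read by ATP luminescence (CellTiter Glo) to fit dose-response scores. Pools were overlapping and class-informed: same-class drugs went to different cohorts, and PI3K was kept apart from MAPK inhibitors. Per-drug scores were recovered by additive SUM deconvolution, with the lowest-ranked drug anchored at zero where needed.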
With `CC1(C)CCC(CN2CCN(c3ccc(C(=O)NS(=O)(=O)c4ccc(NCC5CCOCC5)c([N+](=O)[O-])c4)c(Oc4cnc5[nH]ccc5c4)c3)CC2)=C(c2ccc(Cl)cc2)C1` [Venetoclax], the “DRS, REH, SUM” value is on record as 5.50.

For the molecule `C=CC(=O)Nc1cc(Nc2nccc(-c3cn(C)c4ccccc34)n2)c(OC)cc1N(C)CCN(C)C` [Osimertinib], the “DRS, REH, SUM” value is on record as 0.00.

As for `COc1cc2ncnc(Nc3ccc(F)c(Cl)c3)c2cc1OCCCN1CCOCC1` [Gefitinib], the “DRS, REH, SUM” value is given as 1.12.

The test system of a further experiment is JURKAT. As to the kind of experiment: ATP-based luminescence cell viability (CellTiter Glo), drug response score, JURKAT. As to conditions: Target compression, 6 Pick 3 pools. From the text:
(§1) As part of a screen, a drug could be screened at different concentrations ranging from a lowest concentration to a highest concentration. In such a scenario, multiple data structures may be obtained by the screening platform 210. […] With these multiple data structures, the analysis module 218 can generate a dose-response curve that describes the magnitude of the response of the biological target, as a function of exposure to different concentrations of the drug. Further, the analysis module 218 can calculate a metric that is indicative of the response of the biological target. In the event that the biological target is one of multiple biological targets that are introduced to the pools of drugs, the metric can be used by the screening platform 210 to better understand the relative magnitude of responses. One example of a metric is drug-response score (“DRS”). DRS can be calculated as a continuous function of multiple parameters of the non-linear dose-response curve, including the slope at the half-maximal effective concentration (also called “EC50”) and the top and bottom asymptotes of the dose-response curve. DRS can be calculated as follows: […]
(§2) where y is a continuous function of the variable dose x, a is the maximal response (i.e., the top asymptote of the curve), b is the slope of the curve, c is the IC50 (i.e., half-maximal inhibitory concentration), and d is the minimal response (i.e., the bottom asymptote of the curve). Other examples of metrics include those output by sigmoidal and Hill slide functions that, like DRS, incorporate multiple aspects of the dose-response curve into a continuous function.
(§3) Total cell viability was measured for each cancer cell line using an Adenosine TriPhosphate (“ATP”) assay, and more specifically an ATP-based luminescence assay (i.e., CellTiter Glo). Each cancer drug was screened at multiple concentrations ranging from one nanomolar (nM) to ten micromolar (UM) in order to generate a dose-response curve and calculate a drug response score (“DRS”) for each cancer cell line. The DRS was calculated as a continuous function of multiple parameters of the non-linear dose-response curve, including the slope at the half-maximal effective concentration (also called “EC50”) and the top and bottom asymptotes of the dose-response curve. […] After total cell viability was measured and DRS was calculated, the DRS of each cancer cell line in the pool was deconvolved for each cancer drug.
(§4) DRS for these anchor cell lines are bolded and italicized. Anchors can be identified based on frequency of the cell lines in pools with high DRS versus low DRS. At a high level, an anchor is predicted to be the cell line with the lowest individual DRS. In order to deconvolute individual cell line DRS values from pool DRS values, the anchor can start with an assumed DRS value of zero. Each pool can then be expressed as a polynomial of variables (cell lines in the pool) and constants (DRS value of the pool). The DRS value of each cell line can then be solved for using the anchor value and overlapping polynomial expressions. When multiple values are calculated for the final target solved from the polynomials, then the anchor has a non-zero value that can be determined based on the difference in the calculated value of the final target.
(§5) Each pool represented a co-culture of three cell lines (“Target Compression”).
In general terms: ATP-based viability assays read luminescence as a measure of living cells.
Molecule `CC1(C)CCC(CN2CCN(c3ccc(C(=O)NS(=O)(=O)c4ccc(NCC5CCOCC5)c([N+](=O)[O-])c4)c(Oc4cnc5[nH]ccc5c4)c3)CC2)=C(c2ccc(Cl)cc2)C1` [Venetoclax] showed a DRS from deconvolution of 0.00.

The experiment is the same for the next values; noted with them: Target compression, 7 Pick 3 pools.
`CC1(C)CCC(CN2CCN(c3ccc(C(=O)NS(=O)(=O)c4ccc(NCC5CCOCC5)c([N+](=O)[O-])c4)c(Oc4cnc5[nH]ccc5c4)c3)CC2)=C(c2ccc(Cl)cc2)C1` [Venetoclax]: the DRS from deconvolution amounted to 1.88.

For the next experiment, the system named is MOLT-4. As to the kind of experiment: ATP-based luminescence cell viability (CellTiter Glo), drug response score, MOLT-4. The conditions noted are these: MOLT-4, screened individually (Compress: None).
Description: as §1, §2
Total cell viability was measured for each cancer cell line using an Adenosine TriPhosphate (“ATP”) assay, and more specifically an ATP-based luminescence assay (i.e., CellTiter Glo). […] The DRS was calculated as a continuous function of multiple parameters of the non-linear dose-response curve, including the slope at the half-maximal effective concentration (also called “EC50”) and the top and bottom asymptotes of the dose-response curve. […] After total cell viability was measured and DRS was calculated, the DRS of each cancer cell line in the pool was deconvolved for each cancer drug.
DRS for these anchor cell lines are bolded and italicized. […] Each pool can then be expressed as a polynomial of variables (cell lines in the pool) and constants (DRS value of the pool). […] When multiple values are calculated for the final target solved from the polynomials, then the anchor has a non-zero value that can be determined based on the difference in the calculated value of the final target. […]
In the case of `CC1(C)CCC(CN2CCN(c3ccc(C(=O)NS(=O)(=O)c4ccc(NCC5CCOCC5)c([N+](=O)[O-])c4)c(Oc4cnc5[nH]ccc5c4)c3)CC2)=C(c2ccc(Cl)cc2)C1` [Venetoclax], the “drug response score (DRS)” value is recorded as 2.90.

In the next experiment the test system is CCRF-HSB2. As to the kind of experiment: ATP-based luminescence cell viability (CellTiter Glo), drug response score, CCRF-HSB2. As to conditions: CCRF-HSB2, Sample compression, 5 Pick 3 pools.
Description: as §1, §2, §3, §4, §5
In turn, `CC1(C)CCC(CN2CCN(c3ccc(C(=O)NS(=O)(=O)c4ccc(NCC5CCOCC5)c([N+](=O)[O-])c4)c(Oc4cnc5[nH]ccc5c4)c3)CC2)=C(c2ccc(Cl)cc2)C1` [Venetoclax] showed a DRS from deconvolution of 0.00.

Still in this experiment, the particulars now being: CCRF-HSB2, Target compression, 5 Pick 3 pools.
The molecule `CC1(C)CCC(CN2CCN(c3ccc(C(=O)NS(=O)(=O)c4ccc(NCC5CCOCC5)c([N+](=O)[O-])c4)c(Oc4cnc5[nH]ccc5c4)c3)CC2)=C(c2ccc(Cl)cc2)C1` [Venetoclax] gave a DRS from deconvolution of 0.00.

Staying with this experiment, now noted: CCRF-HSB2, Target compression, 6 Pick 3 pools.
With `CC1(C)CCC(CN2CCN(c3ccc(C(=O)NS(=O)(=O)c4ccc(NCC5CCOCC5)c([N+](=O)[O-])c4)c(Oc4cnc5[nH]ccc5c4)c3)CC2)=C(c2ccc(Cl)cc2)C1` [Venetoclax], the DRS from deconvolution amounted to 0.00.

Staying with this experiment, now noted: CCRF-HSB2, Target compression, 7 Pick 3 pools.
`CC1(C)CCC(CN2CCN(c3ccc(C(=O)NS(=O)(=O)c4ccc(NCC5CCOCC5)c([N+](=O)[O-])c4)c(Oc4cnc5[nH]ccc5c4)c3)CC2)=C(c2ccc(Cl)cc2)C1` [Venetoclax] returned a DRS from deconvolution of 0.00.

Another experiment relates to MOLT-4. As to the kind of experiment: Cell viability (CellTiter Glo), library of cancer drugs, individual or sample compression with randomized (alphabetical) pools, MOLT-4. It counts as cell-based. As to conditions: MOLT-4, None (measured individually). The method in brief:
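Cells cultured with each drug individually at 1 nM–10 μM; viability by ATP luminescence (CellTiter Glo) to build dose-response curves and DRS. Samples read singly or pooled alphabetically (each drug in 3 of 7 pools), with pooled DRS recovered by additivity-based SUM deconvolution.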
`CC1(C)CCC(CN2CCN(c3ccc(C(=O)NS(=O)(=O)c4ccc(NCC5CCOCC5)c([N+](=O)[O-])c4)c(Oc4cnc5[nH]ccc5c4)c3)CC2)=C(c2ccc(Cl)cc2)C1` [Venetoclax] yielded a DRS of 2.74.

For `C=CC(=O)Nc1cc(Nc2nccc(-c3cn(C)c4ccccc34)n2)c(OC)cc1N(C)CCN(C)C` [Osimertinib], the DRS was 1.84.

`COc1cc2ncnc(Nc3ccc(F)c(Cl)c3)c2cc1OCCCN1CCOCC1` [Gefitinib] registered a DRS of 2.96.

Staying with this experiment, now noted: MOLT-4, Samples, 7 Pick 3 randomized (alphabetical) sample pools.
In the case of `CC1(C)CCC(CN2CCN(c3ccc(C(=O)NS(=O)(=O)c4ccc(NCC5CCOCC5)c([N+](=O)[O-])c4)c(Oc4cnc5[nH]ccc5c4)c3)CC2)=C(c2ccc(Cl)cc2)C1` [Venetoclax], the DRS from deconvolution is 2.89.

As to `C=CC(=O)Nc1cc(Nc2nccc(-c3cn(C)c4ccccc34)n2)c(OC)cc1N(C)CCN(C)C` [Osimertinib], the DRS from deconvolution is given as 0.99.

As to `COc1cc2ncnc(Nc3ccc(F)c(Cl)c3)c2cc1OCCCN1CCOCC1` [Gefitinib], the DRS from deconvolution worked out at 3.02.

For a further experiment, the system named is JURKAT. Nature of the experiment: ATP-based luminescence cell viability (CellTiter Glo), drug response score, JURKAT. As to conditions: screened individually (Compress: None).
Consider `CC1(C)CCC(CN2CCN(c3ccc(C(=O)NS(=O)(=O)c4ccc(NCC5CCOCC5)c([N+](=O)[O-])c4)c(Oc4cnc5[nH]ccc5c4)c3)CC2)=C(c2ccc(Cl)cc2)C1` [Venetoclax], for which the “drug response score (DRS)” value came out at 0.00.

The subject of the next experiment is REH. Nature of the experiment: ATP-based luminescence cell viability (CellTiter Glo), drug response score, REH. The arrangement: scale not given here. The conditions noted are these: Target compression, 5 Pick 3 pools.
Description: as §1, §2, §3, §4, §5
`CC1(C)CCC(CN2CCN(c3ccc(C(=O)NS(=O)(=O)c4ccc(NCC5CCOCC5)c([N+](=O)[O-])c4)c(Oc4cnc5[nH]ccc5c4)c3)CC2)=C(c2ccc(Cl)cc2)C1` [Venetoclax] came in with a DRS from deconvolution of 1.56.

The same experiment, now with this note: Target compression, 6 Pick 3 pools.
In the case of `CC1(C)CCC(CN2CCN(c3ccc(C(=O)NS(=O)(=O)c4ccc(NCC5CCOCC5)c([N+](=O)[O-])c4)c(Oc4cnc5[nH]ccc5c4)c3)CC2)=C(c2ccc(Cl)cc2)C1` [Venetoclax], the DRS from deconvolution is 3.18.

The experiment is the same for the next values; noted with them: Target compression, 7 Pick 3 pools.
`CC1(C)CCC(CN2CCN(c3ccc(C(=O)NS(=O)(=O)c4ccc(NCC5CCOCC5)c([N+](=O)[O-])c4)c(Oc4cnc5[nH]ccc5c4)c3)CC2)=C(c2ccc(Cl)cc2)C1` [Venetoclax] displayed a DRS from deconvolution of 1.88.

The experiment is the same for the next values; noted with them: no compression (individual drug).
For `C=CC(=O)Nc1cc(Nc2nccc(-c3cn(C)c4ccccc34)n2)c(OC)cc1N(C)CCN(C)C` [Osimertinib], the “DRS, REH, None” value is reported as 2.01.

Regarding `COc1cc2ncnc(Nc3ccc(F)c(Cl)c3)c2cc1OCCCN1CCOCC1` [Gefitinib], the “DRS, REH, None” value stood at 3.15.

Values taken from patent publication US20260378560A1, “APPROACHES TO DESIGNING AND PERFORMING COMPRESSED BIOLOGICAL EXPERIMENTS AND SYSTEMS FOR IMPLEMENTING THE SAME” (EXVIVO LABS INC., priority 2023, published 2026).
